Laboratory results as given in PMC9081329, “Pharmacokinetics, Mass Balance, Excretion, and Tissue Distribution of Plasmalogen Precursor PPI-1011” (Frontiers in Cell and Developmental Biology, 2022).

Assay: Single dose tissue distribution study (QWBA, LSC of blood and plasma)
Assay type: in vivo, Sprague-Dawley rats
Procedure: Six male rats were administered a single oral dose of [^14C]PPI-1011 at 100 mg/kg (200 μCi/kg) and one rat was sacrificed at each of the following time points after the administration of the dose: 8, 12, 18, 24, 48, or 168 h. Terminal blood was collected by cardiac puncture directly into tubes with K2EDTA, an aliquot was stored at 4°C until LSC was performed for radioactivity, while the remaining blood was processed to plasma and stored at −20°C until LSC. Following blood collection, the carcasses were frozen in a cold bath with hexanes and dry ice for at least 8 min and then dried and stored at −70°C for at least 5 h. The carcasses were transferred to a −20°C freezer for at least 12 h before embedding.
QWBA was used to determine radioactivity concentrations in the caecum (contents and mucosa), large intestine (contents and mucosa), small intestine (contents and mucosa), stomach (contents and mucosa), brain, choroid plexus, spinal cord, bone, skin, adrenal gland, pineal body, pituitary gland, thyroid gland, liver, kidney (cortex, medulla and whole kidney), urinary bladder (contents and wall), brown fat, white fat, eye (lens, uveal tract and whole eye), epididymis, prostate gland, testis, ovary, uterus, lung, exorbital lachrymal gland, Harderian gland, pancreas, salivary gland, skeletal muscle, myocardium, cardiac blood, bone marrow, lymph node, spleen, and thymus. As well, LSC was used to determine the total radioactivity in the whole blood and plasma.
The whole-body cryosectioning technique described by ([Ullberg, 1977]) was the basis for embedding and cryosectioning the rats assigned to this study. Each frozen carcass was shaved, and then the limbs and tail were removed prior to embedding. Chilled (4°C) 3% CMC (low viscosity) was utilized to provide a firm support of reinforced ice around each rat and for a secure attachment to the microtome stage. Upon thorough freezing of the embedding medium surrounding each rat, the frozen CMC block was removed from the freezing bath and four 3/8 inch holes were drilled into the block. One cryosection quality control standard (CQCS) was prepared with a known amount of radioactivity and at least 1 ml aliquots were added to each of the four drilled holes. CQCS data were utilized to evaluate the overall performance of the QWBA assay.
Each frozen rat was sagittally trimmed (50–100 μm) at −20°C until exposure of a few target tissues employing a Leica Cryomacrocut heavy-duty microtome (Leica Microsystems Inc.,). Disposable stainless steel Feather type H45L knives (Feather Safety Razor Co., Ltd.) were utilized for trimming and sectioning each frozen rat. Several thinner sections (50 μm) were discarded prior to obtaining multiple 50 μm sections at various cryosectioning levels for QWBA analysis. Upon the collection of at least 60 target tissues in multiple cryosectioning levels, the cryosections were kept in the Cryomacrocut cryochamber for a minimum of 18 h for dehydration depending upon the number of cryosections within the cryochamber. After dehydration was complete, the cryosections were transferred to ambient temperature for processing. Mounted whole-body cryosections and a set of 15 standards were sandwiched between a standard phosphor screen and an exposure cassette. All cryosections were exposed to the phosphor screen for 4-days in a cabinet protected with lead prior to scanning using a Typhoon PhosphorImager (Cytiva). MCID™ Analysis software (InterFocus Ltd.) was utilized to generate a calibration curve of the STD nominal concentrations (nCi/g) versus PhosphorImager response (counts/μm^2 minus background) by weighted (1/x) linear regression analysis ([Potchoiba et al., 1995]; [Potchoiba et al., 1998]). The linear regression curve was then utilized to determine the concentration (nCi/g) of total radioactivity in whole-body tissues and blood. Radioactivity concentrations were expressed as μg Eq/g based on the specific activity of the compound in the final dose formulations. […]

[1] = 24 h post single oral 100 mg/kg
[2] = 48 h post single oral 100 mg/kg

With CC/C=C\C/C=C\C/C=C\C/C=C\C/C=C\C/C=C\CCC(=O)O[C@H](CO[14CH2]CCCCCCCCCCCCCCC)COC(=O)CCCCC1CCSS1 (stereo partly shown) [[^14C]PPI-1011] the “Radioactivity concentration, Choroid Plexus” value [1] was 9.85 μg equivalents/g, the “Radioactivity concentration, Colliculus” value [1] was 2.06 μg equivalents/g and the “Radioactivity concentration, Diaphragm” value [1] was 37.4 μg equivalents/g. For the same compound, the “Radioactivity concentration, Epididymis” value [1] was 40.4 μg equivalents/g, the “Radioactivity concentration, Esophagus” value [1] was 9.46 μg equivalents/g and the “Radioactivity concentration, Exorbital Lacrimal Gland” value [1] was 9.66 μg equivalents/g. The “Radioactivity concentration, Gastric Mucosa” value [1] was 48.7 μg equivalents/g, the “Radioactivity concentration, Harderian Gland” value [1] was 10.5 μg equivalents/g and the “Radioactivity concentration, Intra-Orbital Lacrimal Gland” value [1] was 7.56 μg equivalents/g. For the same compound, the “Radioactivity concentration, Kidney” value [1] was 24.7 μg equivalents/g, the “Radioactivity concentration, Large Intestines” value [1] was 180 μg equivalents/g and the “Radioactivity concentration, Liver” value [1] was 73.4 μg equivalents/g. The “Radioactivity concentration, Lung” value [1] was 30.2 μg equivalents/g, the “Radioactivity concentration, Lymph Node” value [1] was 17.4 μg equivalents/g and the “Radioactivity concentration, Medulla Oblongata” value [1] was 1.98 μg equivalents/g. The “Radioactivity concentration, Muscle” value [1] was 7.57 μg equivalents/g, the “Radioactivity concentration, Myocardium” value [1] was 31.0 μg equivalents/g and the “Radioactivity concentration, Nasal Turbinates” value [1] was 4.81 μg equivalents/g. For the same compound, the “Radioactivity concentration, Ocular - Uveal Tract” value [1] was 4.27 μg equivalents/g, the “Radioactivity concentration, Ocular - Whole Eye” value [1] was 1.14 μg equivalents/g and the “Radioactivity concentration, Olfactory Bulb” value [1] was 2.07 μg equivalents/g. The “Radioactivity concentration, Pancreas” value [1] was 24.8 μg equivalents/g, the “Radioactivity concentration, Parotid Gland” value [1] was 20.5 μg equivalents/g and the “Radioactivity concentration, Pineal Gland” value [1] was 10.8 μg equivalents/g. The “Radioactivity concentration, Pituitary Gland” value [1] was 16.7 μg equivalents/g, the “Radioactivity concentration, Preputial Gland” value [1] was 112 μg equivalents/g and the “Radioactivity concentration, Prostate” value [1] was 56.7 μg equivalents/g. For the same compound, the “Radioactivity concentration, Renal Cortex” value [1] was 26.8 μg equivalents/g, the “Radioactivity concentration, Renal Medulla” value [1] was 25.8 μg equivalents/g and the “Radioactivity concentration, Salivary Gland” value [1] was 21.3 μg equivalents/g. For the same compound, the “Radioactivity concentration, Seminal Vesicles” value [1] was 5.38 μg equivalents/g, the “Radioactivity concentration, Skin - Non-Pigmented” value [1] was 9.26 μg equivalents/g and the “Radioactivity concentration, Small Intestines” value [1] was 247 μg equivalents/g. The “Radioactivity concentration, Spinal Cord” value [1] was 1.75 μg equivalents/g, the “Radioactivity concentration, Spleen” value [1] was 46.3 μg equivalents/g and the “Radioactivity concentration, Stomach” value [1] was 10.8 μg equivalents/g. For the same compound, the “Radioactivity concentration, Testis” value [1] was 4.31 μg equivalents/g, the “Radioactivity concentration, Thalamus” value [1] was 1.71 μg equivalents/g and the “Radioactivity concentration, Thymus” value [1] was 9.79 μg equivalents/g. The “Radioactivity concentration, Thyroid” value [1] was 27.7 μg equivalents/g, the “Radioactivity concentration, Whole Brain” value [1] was 1.95 μg equivalents/g and the “Radioactivity concentration, Adipose - Brown” value [2] was 132 μg equivalents/g. For the same compound, the “Radioactivity concentration, Adipose - Brown (Vessel Wall)” value [2] was 98.6 μg equivalents/g, the “Radioactivity concentration, Adipose - Subcutaneous” value [2] was 82.1 μg equivalents/g and the “Radioactivity concentration, Adipose - Visceral” value [2] was 111 μg equivalents/g. For the same compound, the “Radioactivity concentration, Adrenal Gland” value [2] was 201 μg equivalents/g, the “Radioactivity concentration, Bladder Wall” value [2] was 10.7 μg equivalents/g and the “Radioactivity concentration, Blood - QWBA” value [2] was 4.19 μg equivalents/g. The “Radioactivity concentration, Bone Marrow” value [2] was 15.7 μg equivalents/g, the “Radioactivity concentration, Bone Surface” value [2] was 0.508 μg equivalents/g and the “Radioactivity concentration, Cecum” value [2] was 34.3 μg equivalents/g. The “Radioactivity concentration, Cerebellum” value [2] was 2.60 μg equivalents/g, the “Radioactivity concentration, Cerebrum” value [2] was 2.23 μg equivalents/g and the “Radioactivity concentration, Choroid Plexus” value [2] was 14.4 μg equivalents/g. For the same compound, the “Radioactivity concentration, Colliculus” value [2] was 3.30 μg equivalents/g, the “Radioactivity concentration, Diaphragm” value [2] was 23.0 μg equivalents/g and the “Radioactivity concentration, Epididymis” value [2] was 6.81 μg equivalents/g. For the same compound, the “Radioactivity concentration, Esophagus” value [2] was 10.8 μg equivalents/g, the “Radioactivity concentration, Exorbital Lacrimal Gland” value [2] was 6.13 μg equivalents/g and the “Radioactivity concentration, Gastric Mucosa” value [2] was 37.5 μg equivalents/g. For the same compound, the “Radioactivity concentration, Harderian Gland” value [2] was 11.1 μg equivalents/g, the “Radioactivity concentration, Intra-Orbital Lacrimal Gland” value [2] was 6.64 μg equivalents/g and the “Radioactivity concentration, Kidney” value [2] was 24.6 μg equivalents/g. For the same compound, the “Radioactivity concentration, Large Intestines” value [2] was 19.1 μg equivalents/g, the “Radioactivity concentration, Liver” value [2] was 40.0 μg equivalents/g and the “Radioactivity concentration, Lung” value [2] was 22.9 μg equivalents/g. The “Radioactivity concentration, Lymph Node” value [2] was 20.0 μg equivalents/g, the “Radioactivity concentration, Medulla Oblongata” value [2] was 2.45 μg equivalents/g and the “Radioactivity concentration, Muscle” value [2] was 8.42 μg equivalents/g. For the same compound, the “Radioactivity concentration, Myocardium” value [2] was 26.6 μg equivalents/g, the “Radioactivity concentration, Nasal Turbinates” value [2] was 5.03 μg equivalents/g and the “Radioactivity concentration, Ocular - Uveal Tract” value [2] was 4.78 μg equivalents/g. The “Radioactivity concentration, Ocular - Whole Eye” value [2] was 1.30 μg equivalents/g, the “Radioactivity concentration, Olfactory Bulb” value [2] was 2.01 μg equivalents/g and the “Radioactivity concentration, Pancreas” value [2] was 28.0 μg equivalents/g. For the same compound, the “Radioactivity concentration, Parotid Gland” value [2] was 20.9 μg equivalents/g, the “Radioactivity concentration, Pineal Gland” value [2] was 16.4 μg equivalents/g and the “Radioactivity concentration, Pituitary Gland” value [2] was 19.2 μg equivalents/g. For the same compound, the “Radioactivity concentration, Preputial Gland” value [2] was 76.5 μg equivalents/g, the “Radioactivity concentration, Prostate” value [2] was 7.15 μg equivalents/g and the “Radioactivity concentration, Renal Cortex” value [2] was 24.3 μg equivalents/g. For the same compound, the “Radioactivity concentration, Renal Medulla” value [2] was 22.7 μg equivalents/g, the “Radioactivity concentration, Salivary Gland” value [2] was 22.9 μg equivalents/g and the “Radioactivity concentration, Seminal Vesicles” value [2] was 9.12 μg equivalents/g. The “Radioactivity concentration, Skin - Non-Pigmented” value [2] was 13.4 μg equivalents/g.
